# Measurements as given in PubChem BioAssay (NCI).
# Several values for one entry are separate records, joined by “and”; a condition that tells them apart may be missing. Equal values may be shown once.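 Interpolation was linear, between the two tested concentrations surrounding the appropriate level; five concentrations were tested over 48 hours in 96-well plates. GI50: concentration for 50% inhibition of growth. The concentration for full growth arrest is given as TGI.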
# Test system: IGROV1 ovarian
# Test: NCI tumour cell line growth inhibition, 48 h
SMILES,TGI [µM],GI50 [µM]
COc1cc(NCc2ccc3nc(N)nc(N)c3c2C)cc(OC)c1OC (tested in a mixture with another compound),68.6,
O=C(O)Cc1cc(Cl)ccc1O,> 100,
Cc1nn(-c2ccc(Cl)cc2)c2nc3c(nc12)C(=O)c1ccccc1-3,> 100,> 100
COc1c(OC[C@H](O)CN2CCOCC2)ccc2c3n(c(=NC(=O)c4cccnc4C)nc12)CCN3,0.343,0.06
O=C(c1ccccc1Br)C(F)(F)F,> 100,
COc1ccc(-c2nc3ccc(-c4nc5ccc(N6CCN(c7ccccc7)CC6)cc5[nH]4)cc3[nH]2)cc1OC,3.44,1.65
O=C1OCC2=C1C(c1cccc(Br)c1)c1cc3c(cc1N2CCO)CCC3 (stereo unspecified),10.7,0.157
Nc1nc(/C=C\c2ccc([N+](=O)[O-])s2)nc(N2CCCC2)n1,17.2,4.72
Clc1ccc2[nH]cc(-c3nnnn3-c3ccccc3)c2c1,> 77,29.4
CC(=O)OC12C=CC(=O)N1c1ccccc1C(=O)O2 (stereo unspecified),> 100,
Oc1cccnc1[Se],> 100,
COc1cccc2c1C(=O)c1c(O)c3c(c(O)c1C2=O)C[C@](O)(C(=O)CO)C[C@H]3O[C@@H]1C[C@@H](NC(=O)CCCCCN(C)C2(c3ccc(F)cc3)CC3CCC2C3)[C@H](O)[C@@H](C)O1 (stereo partly specified),14.8,6.59

# Test system: MALME-3M melanoma
# Test: NCI tumour cell line growth inhibition, 48 h
SMILES,TGI,GI50 [µM]
COc1cc(NCc2ccc3nc(N)nc(N)c3c2C)cc(OC)c1OC (tested in a mixture with another compound),30 µM and 49.4 µM,
O=C(O)Cc1cc(Cl)ccc1O,> 100 µM,
Cc1nn(-c2ccc(Cl)cc2)c2nc3c(nc12)C(=O)c1ccccc1-3,> 100 µM,> 100
COc1c(OC[C@H](O)CN2CCOCC2)ccc2c3n(c(=NC(=O)c4cccnc4C)nc12)CCN3,> 50 µM,0.982
O=C(c1ccccc1Br)C(F)(F)F,> 100 µM,
COc1ccc(-c2nc3ccc(-c4nc5ccc(N6CCN(c7ccccc7)CC6)cc5[nH]4)cc3[nH]2)cc1OC,2.52 µM,1.05
O=C1OCC2=C1C(c1cccc(Br)c1)c1cc3c(cc1N2CCO)CCC3 (stereo unspecified),12.1 µM,0.066
Nc1nc(/C=C\c2ccc([N+](=O)[O-])s2)nc(N2CCCC2)n1,28.5 µM,12.3
Clc1ccc2[nH]cc(-c3nnnn3-c3ccccc3)c2c1,> 56.5 µM,13.5
CC(=O)OC12C=CC(=O)N1c1ccccc1C(=O)O2 (stereo unspecified),> 85.8 µM,
Oc1cccnc1[Se],> 100 µM,
COc1cccc2c1C(=O)c1c(O)c3c(c(O)c1C2=O)C[C@](O)(C(=O)CO)C[C@H]3O[C@@H]1C[C@@H](NC(=O)CCCCCN(C)C2(c3ccc(F)cc3)CC3CCC2C3)[C@H](O)[C@@H](C)O1 (stereo partly specified),16.9 µM,7.85

# Test system: MCF7 breast
# Test: NCI tumour cell line growth inhibition, 48 h
SMILES,TGI [µM],GI50 [µM]
COc1cc(NCc2ccc3nc(N)nc(N)c3c2C)cc(OC)c1OC (tested in a mixture with another compound),28.7,
O=C(O)Cc1cc(Cl)ccc1O,> 100,
Cc1nn(-c2ccc(Cl)cc2)c2nc3c(nc12)C(=O)c1ccccc1-3,> 100,51.9
COc1c(OC[C@H](O)CN2CCOCC2)ccc2c3n(c(=NC(=O)c4cccnc4C)nc12)CCN3,> 50,0.0751
O=C(c1ccccc1Br)C(F)(F)F,> 100,
COc1ccc(-c2nc3ccc(-c4nc5ccc(N6CCN(c7ccccc7)CC6)cc5[nH]4)cc3[nH]2)cc1OC,0.649,0.138
O=C1OCC2=C1C(c1cccc(Br)c1)c1cc3c(cc1N2CCO)CCC3 (stereo unspecified),9.66,0.0257
Nc1nc(/C=C\c2ccc([N+](=O)[O-])s2)nc(N2CCCC2)n1,16.1,3.16
Clc1ccc2[nH]cc(-c3nnnn3-c3ccccc3)c2c1,> 100,29.8
CC(=O)OC12C=CC(=O)N1c1ccccc1C(=O)O2 (stereo unspecified),> 100,> 100
Oc1cccnc1[Se],> 100,
COc1cccc2c1C(=O)c1c(O)c3c(c(O)c1C2=O)C[C@](O)(C(=O)CO)C[C@H]3O[C@@H]1C[C@@H](NC(=O)CCCCCN(C)C2(c3ccc(F)cc3)CC3CCC2C3)[C@H](O)[C@@H](C)O1 (stereo partly specified),2.7,0.966

# Test system: SNB-75 CNS
# Test: NCI tumour cell line growth inhibition, 48 h
SMILES,TGI [µM],GI50 [µM]
COc1cc(NCc2ccc3nc(N)nc(N)c3c2C)cc(OC)c1OC (tested in a mixture with another compound),52.7,
O=C(O)Cc1cc(Cl)ccc1O,> 100,
Cc1nn(-c2ccc(Cl)cc2)c2nc3c(nc12)C(=O)c1ccccc1-3,46.3,10.9
COc1c(OC[C@H](O)CN2CCOCC2)ccc2c3n(c(=NC(=O)c4cccnc4C)nc12)CCN3,1.18,0.02
O=C(c1ccccc1Br)C(F)(F)F,> 100,
COc1ccc(-c2nc3ccc(-c4nc5ccc(N6CCN(c7ccccc7)CC6)cc5[nH]4)cc3[nH]2)cc1OC,3.8,1.06
O=C1OCC2=C1C(c1cccc(Br)c1)c1cc3c(cc1N2CCO)CCC3 (stereo unspecified),9.41,0.0607
Nc1nc(/C=C\c2ccc([N+](=O)[O-])s2)nc(N2CCCC2)n1,44,15.1
Clc1ccc2[nH]cc(-c3nnnn3-c3ccccc3)c2c1,30.8,6.25
CC(=O)OC12C=CC(=O)N1c1ccccc1C(=O)O2 (stereo unspecified),> 100,
Oc1cccnc1[Se],> 100,
COc1cccc2c1C(=O)c1c(O)c3c(c(O)c1C2=O)C[C@](O)(C(=O)CO)C[C@H]3O[C@@H]1C[C@@H](NC(=O)CCCCCN(C)C2(c3ccc(F)cc3)CC3CCC2C3)[C@H](O)[C@@H](C)O1 (stereo partly specified),11.2,3.28

# Test system: SR leukemia
# Test: NCI tumour cell line growth inhibition, 48 h
SMILES,TGI [µM],GI50 [µM]
COc1cc(NCc2ccc3nc(N)nc(N)c3c2C)cc(OC)c1OC (tested in a mixture with another compound),> 44.4,
O=C(O)Cc1cc(Cl)ccc1O,> 100,
Cc1nn(-c2ccc(Cl)cc2)c2nc3c(nc12)C(=O)c1ccccc1-3,> 100,> 100
COc1c(OC[C@H](O)CN2CCOCC2)ccc2c3n(c(=NC(=O)c4cccnc4C)nc12)CCN3,> 50,> 50
O=C(c1ccccc1Br)C(F)(F)F,> 100,
COc1ccc(-c2nc3ccc(-c4nc5ccc(N6CCN(c7ccccc7)CC6)cc5[nH]4)cc3[nH]2)cc1OC,2.83,0.341
O=C1OCC2=C1C(c1cccc(Br)c1)c1cc3c(cc1N2CCO)CCC3 (stereo unspecified),22.2,0.185
Nc1nc(/C=C\c2ccc([N+](=O)[O-])s2)nc(N2CCCC2)n1,6.49,1.62
Clc1ccc2[nH]cc(-c3nnnn3-c3ccccc3)c2c1,> 38.9,4.4
CC(=O)OC12C=CC(=O)N1c1ccccc1C(=O)O2 (stereo unspecified),> 100,
Oc1cccnc1[Se],> 100,
COc1cccc2c1C(=O)c1c(O)c3c(c(O)c1C2=O)C[C@](O)(C(=O)CO)C[C@H]3O[C@@H]1C[C@@H](NC(=O)CCCCCN(C)C2(c3ccc(F)cc3)CC3CCC2C3)[C@H](O)[C@@H](C)O1 (stereo partly specified),1.64,0.223
